In series [1] the target is T1, BSA (Bos taurus, UniProt P02769). Briefly: THC standard adsorption to BSA at varying ethanol content (Example 1c). It is filed as binding, bovine. The settings on record: 10 micrograms BSA, 30 micrograms THC, 1.5-15 microliters ethanol; FIG. 5. How it is done:
30 micrograms of THC standard was dissolved in various amounts of ethanol (absolute) in various amounts, between 1.5 microliters and 15 microliters. The THC solution was then combined with 0.5 ml of a 20 microgram/ml solution of BSA. […] The results can be seen in FIG. 5.

A further series has as its target T2, ovalbumin (hen) (Gallus gallus, UniProt P01012).
T2 sequence (P01012 1-386): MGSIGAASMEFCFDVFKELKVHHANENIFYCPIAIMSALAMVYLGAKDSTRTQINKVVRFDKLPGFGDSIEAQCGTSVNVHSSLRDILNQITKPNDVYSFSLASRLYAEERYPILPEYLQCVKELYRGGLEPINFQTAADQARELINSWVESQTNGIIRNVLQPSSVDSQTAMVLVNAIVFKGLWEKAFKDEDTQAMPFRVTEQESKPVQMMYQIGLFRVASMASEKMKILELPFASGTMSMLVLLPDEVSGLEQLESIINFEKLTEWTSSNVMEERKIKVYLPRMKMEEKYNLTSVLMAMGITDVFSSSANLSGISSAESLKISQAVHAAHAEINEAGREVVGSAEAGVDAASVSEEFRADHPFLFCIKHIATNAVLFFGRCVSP
Briefly: Cannabis vapor streamed through protein solution, cannabinoids adsorbed (Example 1f). It is filed as binding. The settings on record: vapor of cannabis high in CBD; 1 mg/ml protein, ethanol:water 1:2, 30° C., 24 hours. How it is done: (§1) The protein solutions were formed using ethanol and water in a 1:2 ratio. The solutions were incubated at 30° C. for 24 hours.

For a further series, the system named is bovine γ-globulin. The description is as above. Format: binding. The settings on record: vapor of cannabis high in CBD; 1 mg/ml protein, ethanol:water 1:2, 30° C., 24 hours. How it is done:
as §1

The target in series [2] is T3, rice recombinant human serum albumin (HSA) (Homo sapiens, UniProt P02768).
T3 construct: host or cells: rice (recombinant expression host)
The description is as above. It is filed as binding. The settings on record: vapor of cannabis high in CBD; 1 mg/ml protein, ethanol:water 1:2, 30° C., 24 hours. How it is done: as §1

The target of series [3] is T1, BSA. Briefly: Cannabis smoke/vapor passed through BSA/water/ethanol solution, cannabinoid profile (Example 1d). It is filed as binding, bovine. The settings on record: 33% ethanol, 48 hours incubation, washed.
A further series deals with albumin (BSA) (Bos taurus, UniProt P02769). Briefly: Ethanolic cannabinoid solution mixed with aqueous albumin, protein-bound cannabinoid quantified (Example 2b). The settings on record: 100 microliters ethanolic solution + 500 microliters 5 mg/ml BSA, 30° C., 12 hours, non-adsorbed cannabinoids separated. Format: binding, bovine. Also on record: protein-bound cannabinoid quantified, Vapor: unit not given beside the values.

For series [4] the following is noted: 3 g high THC strain; 200 ml ethanol concentrated to about 3 ml.
Series [5] concerns the target T1, BSA. Briefly: Adsorption capacity of BSA using THC standard (Example 1e). The settings on record: albumin 20 μg/ml in water and ethanol; THC 20-60 μg/ml; incubation two hours or 12 hours; FIG. 4. It is filed as binding, bovine. As to the method:
An albumin solution in water (20 μg/ml) and ethanol was prepared. THC standard was added at concentrations of between 20 μg/ml and 60 μg/ml. The amount of THC adsorbed to the BSA protein was determined for each concentration after incubation for either two hours or 12 hours while gently vortexing.

Series [6] can be described thus: Cannabis smoke/vapor passed through pure ethanol, cannabinoid profile (Example 1d). The settings on record: for relative concentration of cannabinoids (relative to total cannabinoid content), Vapor passed through ethanol: vapor at 210° C. Format: physicochemical.
In series [7] the target is T4, bovine serum albumin (BSA) (Bos taurus, UniProt P02769).
T4 construct: purchased Millipore, USA
Kind of series: Cannabis smoke bubbled through aqueous BSA solution, cannabinoids determined by HPLC (Example 1a). It is filed as binding. The settings on record: BSA in Hartmann's solution; FIG. 2A. As to the method: Protein-bound cannabinoid was formed according to the following method. An aqueous albumin solution was prepared by adding 20 (mg)) of bovine serum albumin (BSA, from Millipore, USA) to 10 milliliters (ml) ml Hartmann's solution (B. Braun Melsungen AG, Germany). BSA was completely dissolved using a shaker (Heidolph POLYMAX 1040) at 50 revolutions per minute.
A cannabis-filled cigarette was formed using a cigarette paper containing 0.8 gr ground cannabis (provided by “Seach” Israel), from flowers and budding leaves. A Pasteur pipette was cut longitudinally at its wide end, and the cigarette was lodged in to the cut end. The narrow end of the pipette was attached to a syringe. The cigarette was lit in a fume hood, and cigarette smoke was collected in the syringe by pulling the syringe plunger. The smoke was then slowly released into the BSA solution by depressing the plunger. Approximately 350 ml of smoke-containing air was gently bubbled through the BSA solution.
As a control, a solution of 10 ml of Hartmann's solution was prepared without the addition of BSA and a similar procedure of cannabis smoke formation and bubbling was performed.
Samples having a volume of 3 ml of the BSA solution and the control solution were each inserted in to HPLC glass vials and the open vials were inserted into a vacuum oven for 24 hours at 37° Celsius.
The solid phase after the evaporation was crushed in to a fine powder using mortar and pestle. The powder was extracted using Methanol chloroform 9:1 extract solution, sonicated for 30 minutes, and was then filtered and added in to an HPLC testing tube.
HPLC was performed using an HP1050 AGILENT, DAD detector, XBridge C18 3.5 μm 4.6×150 mm column, and according to the following parameters: […]

For series [8], the target named is T1, BSA. Briefly: Cannabis extract combined with albumin solution, cannabinoids adsorbed to BSA (Example 2a). The settings on record: albumin solution 10 mg/ml (BSA) with 20% ethanol, 2 hours at room temperature. It is filed as binding, bovine.
Series [9] is described as follows: Cannabinoid content of cannabis extract (Example 2a). It is filed as physicochemical. The settings on record: methanol/chloroform 9:1 cannabis extract.
The mark [10] stands for this setting: strain of cannabis high in CBD and THC.

T1 sequence (P02769 25-607): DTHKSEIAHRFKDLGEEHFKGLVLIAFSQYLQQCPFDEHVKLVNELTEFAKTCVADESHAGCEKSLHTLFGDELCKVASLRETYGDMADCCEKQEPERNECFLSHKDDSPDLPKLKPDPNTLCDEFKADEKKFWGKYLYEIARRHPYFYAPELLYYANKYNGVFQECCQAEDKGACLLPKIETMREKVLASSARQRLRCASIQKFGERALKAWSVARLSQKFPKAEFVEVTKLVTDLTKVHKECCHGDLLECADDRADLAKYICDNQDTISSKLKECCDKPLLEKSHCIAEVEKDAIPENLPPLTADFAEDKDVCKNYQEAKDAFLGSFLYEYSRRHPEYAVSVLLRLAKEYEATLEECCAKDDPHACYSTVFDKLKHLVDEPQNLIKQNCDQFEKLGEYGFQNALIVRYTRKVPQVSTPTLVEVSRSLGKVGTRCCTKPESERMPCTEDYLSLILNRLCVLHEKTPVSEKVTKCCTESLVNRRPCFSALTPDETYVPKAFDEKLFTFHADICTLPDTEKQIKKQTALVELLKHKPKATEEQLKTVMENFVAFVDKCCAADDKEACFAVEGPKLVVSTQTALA
Chain of albumin (BSA) (P02769 25-607): as above
T4 sequence (P02769 25-607): as above
T3 sequence (P02768 25-609): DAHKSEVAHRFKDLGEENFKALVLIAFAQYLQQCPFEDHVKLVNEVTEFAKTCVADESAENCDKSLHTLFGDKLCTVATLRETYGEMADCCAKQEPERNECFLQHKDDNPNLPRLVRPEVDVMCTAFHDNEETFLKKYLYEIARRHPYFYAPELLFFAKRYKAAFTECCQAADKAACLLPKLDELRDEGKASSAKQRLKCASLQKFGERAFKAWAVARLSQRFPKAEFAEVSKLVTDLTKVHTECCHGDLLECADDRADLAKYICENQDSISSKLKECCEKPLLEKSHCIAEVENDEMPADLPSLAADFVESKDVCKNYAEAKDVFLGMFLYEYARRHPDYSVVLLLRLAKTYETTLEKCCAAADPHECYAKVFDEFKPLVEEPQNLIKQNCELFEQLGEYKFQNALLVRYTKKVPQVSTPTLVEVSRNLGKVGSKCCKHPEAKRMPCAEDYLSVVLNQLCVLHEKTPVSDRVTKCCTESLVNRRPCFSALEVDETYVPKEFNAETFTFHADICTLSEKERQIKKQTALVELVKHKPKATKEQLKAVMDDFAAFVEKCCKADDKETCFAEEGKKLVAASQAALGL

As for `CCCCCc1cc(O)c2c(c1)OC(C)(C)[C@@H]1CCC(C)=C[C@@H]21` [THC, tetrahydrocannabinol, reference compound], at BSA [1], the “adsorption of THC to protein as ethanol concentration increases” value was “adsorption of THC to protein increases”. Moreover, the “percentage of each cannabinoid relative to total cannabinoids adsorbed to protein, Ovalbumin” value at ovalbumin (hen) is given as 41.7 percentage. Moreover, in the series with bovine γ-globulin, the “percentage of each cannabinoid relative to total cannabinoids adsorbed to protein, Bovine γ-globulin” value is on record as 0 percentage. Moreover, the “percentage of each cannabinoid relative to total cannabinoids adsorbed to protein, Rice recombinant HSA” value in [2] was 21 percentage. Also, on BSA [3] (setting [10]), the “relative concentration of cannabinoids (relative to total cannabinoid content), Smoke passed through BSA/water/ethanol” value is 32.8 percent (weight/weight) and the “relative concentration of cannabinoids (relative to total cannabinoid content), Vapor passed through BSA/water/ethanol” value is on record as 37.7 percent (weight/weight). In addition, on BSA [3] (strain of cannabis high in THC), the “relative concentration of cannabinoids (relative to total cannabinoid content), Smoke passed through BSA/water/ethanol” value was 69.7 percent (weight/weight). Moreover, at albumin (BSA), the “protein-bound cannabinoid quantified, Smoke” value was 121.38 and the “protein-bound cannabinoid quantified, Vapor” value came to 131.955. For the same compound, in series [4], the “amount of cannabinoids dissolved in ethanol, Smoke” value is recorded as 6195.223 micrograms/ml and the “amount of cannabinoids dissolved in ethanol, Vapor” value is 3777.7796 micrograms/ml. Besides, the “adsorbed THC per mg of albumin” value on BSA [5] was “above 50 μg adsorbed THC per mg of albumin”. Besides, in [6] (setting [10]), the “relative concentration of cannabinoids (relative to total cannabinoid content), Smoke passed through ethanol” value is 40.7 percent (weight/weight) and the “relative concentration of cannabinoids (relative to total cannabinoid content), Vapor passed through ethanol” value is 40.9 percent (weight/weight). Also, in series [6] (strain of cannabis high in THC), the “relative concentration of cannabinoids (relative to total cannabinoid content), Smoke passed through ethanol” value was 86.7 percent (weight/weight) and the “relative concentration of cannabinoids (relative to total cannabinoid content), Vapor passed through ethanol” value is 94.6 percent (weight/weight). For the same compound, in series [7], the “active cannabinoids found by HPLC in BSA aqueous solution after cannabis smoke was introduced” value is recorded as “dissolved in the solution”. Further, the “percentage of each cannabinoid relative to total cannabinoids adsorbed to protein, Adsorbed to BSA after extract combined with BSA solution” value on BSA [8] was 63 percentage. Further, in series [9], the “percentage of each cannabinoid relative to total cannabinoids, Extract” value is 68 percentage.
